Results on four molecules are retold here after patent US7592144B2, “Bacterial ligand-binding sensor” (The Trustees of Princeton University, priority 2005, dated 2009).

The target in experiment [1] is T1, human estrogen receptor alpha ligand-binding domain (Homo sapiens, UniProt P03372).
T1 construct: expressed in transfected cells; host or cells: E. coli D1210(delta)thyA carrying pMIT::ER*
T1 sequence (P03372 301-553): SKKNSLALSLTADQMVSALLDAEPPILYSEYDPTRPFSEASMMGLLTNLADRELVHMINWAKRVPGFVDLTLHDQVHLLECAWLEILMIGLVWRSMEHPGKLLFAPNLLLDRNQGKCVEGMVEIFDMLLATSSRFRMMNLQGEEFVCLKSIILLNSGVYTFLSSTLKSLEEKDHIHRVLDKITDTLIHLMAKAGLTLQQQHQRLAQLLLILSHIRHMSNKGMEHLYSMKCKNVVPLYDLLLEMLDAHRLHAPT
Put plainly: Growth phenotype of E. coli D1210(delta)thyA cells carrying pMIT::ER* in liquid thymineless medium. It is filed as cell-based. The settings on record: 34 degrees Celsius, ligand 10 micromolar. Here is the method:
(§1) FIG. 2 consists of FIGS. 2A, 2B, 2C, and 2D. FIG. 2A is a graph that depicts ligand effects on the growth phenotypes of E. coli D1210(delta)thyA cells carrying the pMIT::ER* vector in 50 milliliter cultures of liquid thymineless medium at 34 degrees Celsius. […] Varying concentrations of estrogen were dissolved in dimethylsulfoxide to allow precise control of dosing. Experiments were carried out in duplicate and errors bars represent one standard deviation from the mean value. FIG. 2C is a graph that depicts ligand effects on the growth phenotypes of cells harboring pMIT::TR* in 50 milliliter cultures of liquid thymineless medium at 34 degrees Celsius. FIG. 2D is an image that depicts ligand effects on the growth phenotypes of cells harboring pMIT::TR* and incubated on thymineless agar plates at 30 degrees Celsius for approximately 50 hours. […] In the experiment corresponding to FIG. 2D, the paper disks applied were allowed to saturate in 10 millimolar solutions of estrogen and thyroid hormone prior to applying them to the medium.
(§2) All experiments were carried out at least in duplicate.

Experiment [2] addresses T2, human thyroid hormone receptor beta ligand-binding domain (Homo sapiens, UniProt P10828).
T2 construct: expressed in transfected cells; host or cells: E. coli D1210(delta)thyA carrying pMIT::TR*
T2 sequence (P10828 203-461): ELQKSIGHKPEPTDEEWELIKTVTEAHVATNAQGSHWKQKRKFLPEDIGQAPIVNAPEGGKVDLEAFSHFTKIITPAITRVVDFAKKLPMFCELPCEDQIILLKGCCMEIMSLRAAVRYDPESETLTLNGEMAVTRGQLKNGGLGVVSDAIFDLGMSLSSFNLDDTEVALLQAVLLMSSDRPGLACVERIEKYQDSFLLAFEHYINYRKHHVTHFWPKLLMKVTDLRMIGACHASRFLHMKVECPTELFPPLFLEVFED
Put plainly: Growth phenotype of E. coli D1210(delta)thyA cells carrying pMIT::TR* in liquid thymineless medium. It is filed as cell-based. Particulars: 34 degrees Celsius, ligand 10 micromolar. How it is done:
as §1, §2

The target in experiment [3] is T2, human thyroid hormone receptor beta ligand-binding domain. Kind of experiment: Paper disk growth test of cells harboring pMIT::TR* on thymineless agar plates. It is filed as cell-based. The settings on record: 30 degrees Celsius, approximately 50 hours, disks saturated in 10 millimolar solutions. Here is the method: as §1
In this case a lawn of cells was plated onto thymineless medium and exposed to small paper disks impregnated with either estrogen or thyroid hormone.

For experiment [4], the target named is T1, human estrogen receptor alpha ligand-binding domain. Kind of experiment: Detection of antagonism: pMIT::ER* cells grown in the presence of E2 plus increasing concentrations of test compound. It is filed as cell-based. The settings on record: 10 micromolar E2, liquid thymineless medium, 34 degrees Celsius, OD600 at 15 hours. How it is done: FIG. 4 is a graph showing antagonism of estrogen agonists and antagonists. […] Relative cell growth was determined by OD600 at 15 hours in 5 milliliter cultures of liquid thymineless medium at 34 degrees Celsius.
as §2

Another experiment deals with T3, ER (Homo sapiens, UniProt P03372).
T3 sequence (P03372 301-553): T1 sequence (P03372 301-553)
Put plainly: Hormone-dependent growth with inteinless MBP-ER-TS fusion.

“Also recorded” adds a separate entry of the source.

As for `N[C@@H](Cc1ccc(Oc2cc(I)c(O)c(I)c2)c(I)c1)C(=O)O` [T3, 3,3′,5′-triiodo-L-thyronine], the “ligand effect on cell growth” value was “insensitive; also recorded: enhance growth only in cell cultures expressing the TR fusion” in experiment [1] and “able to grow only in the presence; also recorded: able to enhance growth” in experiment [2]. In addition, the “colony formation around ligand-impregnated paper disk” value in experiment [3] is reported as “clear colonies were observed”.

Regarding 17-beta-estradiol [E2], the “colony formation around ligand-impregnated paper disk” value in experiment [3] was “no colonies could be observed”.

Turning to 4-hydroxytamoxifen, the “effect on cell growth when combined with estrogen agonist” value in experiment [4] was “inhibitory effects”. In addition, the “behaviour (agonist/antagonist) with inteinless fusion” value on ER was “estrogen super-agonist”.

Consider `CC(=O)[C@H]1CC[C@H]2[C@@H]3CCC4=CC(=O)CC[C@]4(C)[C@H]3CC[C@]12C` [progesterone], for which the “ligand effect on cell growth” value in experiment [1] and in experiment [2] was “no effect on cell growth” in each case.
